In PMC11249953, “c-KIT inhibitors reduce pathology and improve behavior in the Tg(SwDI) model of Alzheimer’s disease” (Life Science Alliance, 2024):
“And” between values parts separate entries of the source, which are not always exact repeats. Equal values may be shown once.

Columns and labels:
PIKFYVE = target: T1, PIKFYVE (Homo sapiens, UniProt Q9Y2I7); assay: KINOMEscan competition binding, PIKFYVE; conditions: 10 µM compound
T1 construct: DNA label for qPCR read-out (T7 phage fusion or DNA tag); purchased Eurofins DiscoverX Corporation; host or cells: T7 phage in E. coli (BL21-derived) or HEK-293
Method: The KINOMEscan screening platform (Eurofins DiscoverX Corporation) was performed using active site-directed competition binding assay to quantitatively measure interactions between BK40143 and BK40197 and more than 450 human kinases and disease relevant mutant variants. […] Screening “hits” are identified by measuring the amount of kinase captured in test (BK40143 and BK40197) versus control samples by using a quantitative and ultra-sensitive qRT-PCR method that detects the associated DNA label. BK40143 and BK40197 were screened at 10 µM concentration, and results for primary screen binding interactions were reported as “% Ctrl” (POC), where lower numbers indicate stronger hits and calculated as follows: [test compound signal−positive control signal/negative control signal−positive control signal]×100
negative control = DMSO (100% Ctrl)
positive control = control compound (0% Ctrl)
Based on screening data from of profiled compounds, a proportional relationship between primary screening results and corresponding compound/target affinities can be described as binding constants (Kd values) for the indicated ranges of POC values with tighter binding (higher affinity) interactions associated with lower POC values and weaker binding (lower affinity) associated with higher POC values. Briefly, kinase-tagged T7 phage strains were grown in parallel in 24-well blocks in an E. coli host derived from the BL21 strain. E. coli were grown to log-phase and infected with T7 phage from a frozen stock (multiplicity of infection = 0.4) and incubated with shaking at 32°C until lysis (90–150 min). The lysates were centrifuged (6,000g) and filtered (0.2 μm) to remove cell debris. The remaining kinases were produced in HEK-293 cells and subsequently tagged with DNA for qRT-PCR detection. Streptavidin-coated magnetic beads were treated with biotinylated small molecule ligands for 30 min at RT to generate affinity resins for kinase assays. The liganded beads were blocked with excess biotin and washed with blocking buffer (1% BSA, 0.05% Tween 20, 1 mM DTT; SeaBlock [Pierce]) to remove unbound ligand and to reduce non-specific phage binding. Binding reactions were assembled by combining kinases, liganded affinity beads, and test compounds in 1x binding buffer (20% 0.17x PBS, 0.05% Tween 20, 6 mM DTT; SeaBlock). Test compounds were prepared as 100x stocks in 100% DMSO and directly diluted into the assay. All reactions were performed in polypropylene 384-well plates in a final volume of 0.02 ml. The assay plates were incubated at RT with shaking for 1 h and the affinity beads were washed with wash buffer (1x PBS, 0.05% Tween 20). […] The kinase concentration in the eluates was measured by qRT-PCR.

mice = assay: Elevated plus maze, source data sheets EPM (mouse line not given); assay type: in vivo; conditions: for EPM Trial 1 Closed Entries / EPM Trial 1 Open Entries / EPM Trial 2 Closed Entries / EPM Trial 2 Open Entries / EPM Trial 2 Time Closed / EPM Trial 1 Time Closed / EPM Trial 1 Time Open / EPM Trial 2 Time Open / EPM Totals Closed Entries / EPM Totals Open Entries / EPM Totals Time Closed / EPM Totals Time Open: individual mice; for EPM Trial 2 Time Closed / EPM Totals Time Closed / EPM Totals Time Open / Time Open: in s (unit assumed); for EPM Trial 1 Time Closed / EPM Trial 1 Time Open / EPM Trial 2 Time Open / Time Closed / Time Closed AVG / Time Open AVG: in s; for EPM Totals Closed Entries / EPM Totals Open Entries / EPM Totals Time Closed / EPM Totals Time Open: sum of trials 1 and 2; for Closed Entries AVG / Open Entries AVG / Time Closed AVG / Time Open AVG: group average
Method: The elevated plus maze was performed using a standard set up, with two enclosed arms and two open arms. Mice were placed at the intersection of the open and closed arms and allowed to freely explore for 5 min, two times. Time spent in the open and closed arms and number of entries into the open and closed arms were recorded.

[1] = 2.5mg/kg, listed as 143, female mice
[2] = 2.5mg/kg, listed as 143, male mice
[3] = 5.0mg/kg, listed as 143, female mice
[4] = 5.0mg/kg, listed as 143, male mice
[5] = Totals (Trial 1 + Trial 2), individual animals, listed as 143
[6] = Trial 1, individual animals, listed as 143
[7] = Trial 2, individual animals, listed as 143

T1 sequence (Q9Y2I7 whole entry, the tested form may be a part): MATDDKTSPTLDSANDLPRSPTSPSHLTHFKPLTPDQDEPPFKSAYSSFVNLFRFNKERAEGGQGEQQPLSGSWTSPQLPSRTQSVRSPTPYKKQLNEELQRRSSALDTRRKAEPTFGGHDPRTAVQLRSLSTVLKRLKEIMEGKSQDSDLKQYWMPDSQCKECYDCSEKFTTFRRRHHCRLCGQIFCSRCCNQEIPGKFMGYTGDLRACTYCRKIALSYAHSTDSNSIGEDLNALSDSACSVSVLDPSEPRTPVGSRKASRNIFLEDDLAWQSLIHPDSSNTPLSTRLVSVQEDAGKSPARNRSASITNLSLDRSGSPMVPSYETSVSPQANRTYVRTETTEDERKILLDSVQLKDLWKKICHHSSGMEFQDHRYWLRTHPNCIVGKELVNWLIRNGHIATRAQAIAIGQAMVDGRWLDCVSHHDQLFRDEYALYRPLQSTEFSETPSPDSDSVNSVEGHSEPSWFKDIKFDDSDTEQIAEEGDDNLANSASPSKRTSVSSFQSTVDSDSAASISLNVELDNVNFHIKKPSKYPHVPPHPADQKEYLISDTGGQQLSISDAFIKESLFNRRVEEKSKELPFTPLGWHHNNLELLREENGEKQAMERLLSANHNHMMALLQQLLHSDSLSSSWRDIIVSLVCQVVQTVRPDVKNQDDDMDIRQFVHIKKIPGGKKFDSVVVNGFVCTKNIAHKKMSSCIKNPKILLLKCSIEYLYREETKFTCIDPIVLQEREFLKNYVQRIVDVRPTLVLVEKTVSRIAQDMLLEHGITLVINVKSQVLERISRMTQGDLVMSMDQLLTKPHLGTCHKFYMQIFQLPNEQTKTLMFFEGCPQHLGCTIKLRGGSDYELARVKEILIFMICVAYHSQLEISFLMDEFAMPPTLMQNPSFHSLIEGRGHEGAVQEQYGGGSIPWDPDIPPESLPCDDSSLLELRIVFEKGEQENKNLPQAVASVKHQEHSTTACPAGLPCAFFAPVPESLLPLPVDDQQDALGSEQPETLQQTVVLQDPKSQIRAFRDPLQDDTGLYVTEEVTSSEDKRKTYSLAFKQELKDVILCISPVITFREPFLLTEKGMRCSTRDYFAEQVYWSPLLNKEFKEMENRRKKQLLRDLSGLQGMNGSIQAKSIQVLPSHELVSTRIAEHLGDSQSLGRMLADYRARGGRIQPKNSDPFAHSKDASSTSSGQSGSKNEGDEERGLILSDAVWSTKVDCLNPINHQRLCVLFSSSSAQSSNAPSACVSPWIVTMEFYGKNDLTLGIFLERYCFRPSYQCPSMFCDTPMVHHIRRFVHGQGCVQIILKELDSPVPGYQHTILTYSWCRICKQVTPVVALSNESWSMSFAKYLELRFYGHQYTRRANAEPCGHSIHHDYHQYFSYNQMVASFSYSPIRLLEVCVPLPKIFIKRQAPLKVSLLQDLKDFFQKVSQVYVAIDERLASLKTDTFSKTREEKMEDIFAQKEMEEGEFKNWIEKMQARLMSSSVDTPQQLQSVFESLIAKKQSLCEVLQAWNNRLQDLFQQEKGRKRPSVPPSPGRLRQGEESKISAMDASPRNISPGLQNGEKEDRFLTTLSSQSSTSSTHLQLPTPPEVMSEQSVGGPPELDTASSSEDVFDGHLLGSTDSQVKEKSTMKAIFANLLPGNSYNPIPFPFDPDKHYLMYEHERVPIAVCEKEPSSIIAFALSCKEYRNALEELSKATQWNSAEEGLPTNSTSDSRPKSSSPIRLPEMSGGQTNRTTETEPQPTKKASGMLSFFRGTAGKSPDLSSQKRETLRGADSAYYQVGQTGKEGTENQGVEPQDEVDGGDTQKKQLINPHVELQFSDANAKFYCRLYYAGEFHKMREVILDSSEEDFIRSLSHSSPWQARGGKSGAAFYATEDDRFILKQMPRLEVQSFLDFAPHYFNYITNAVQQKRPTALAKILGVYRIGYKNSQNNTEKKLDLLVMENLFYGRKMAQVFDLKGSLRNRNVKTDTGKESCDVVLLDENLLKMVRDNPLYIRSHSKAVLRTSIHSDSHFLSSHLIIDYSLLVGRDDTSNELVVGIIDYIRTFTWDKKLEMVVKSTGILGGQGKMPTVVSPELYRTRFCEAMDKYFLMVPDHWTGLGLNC

What does the source list for `Cc1cccc(-c2cc3nccc(Nc4ccccc4)c3s2)c1` [BK40143]?
inhibition at 10 µM (PIKFYVE): 32%; remaining binding at 10 µM (PIKFYVE; lower = stronger binding, read-out: PIKFYVE %Ctrl @ 10000nM (POC)): 68%; EPM Trial 1 Closed Entries (mice; [1]): 7 and 2 and 1 and 3 and 5; EPM Trial 1 Open Entries (mice; [1]): 6 and 2 and 1 and 5 and 3; EPM Trial 2 Closed Entries (mice; [1]): 2 and 8 and 1 and 5; EPM Trial 2 Open Entries (mice; [1]): 1 and 6 and 0 and 4; EPM Trial 2 Time Closed (mice; [1]): 296 and 240 and 300 and 257 and 277; EPM Trial 2 Time Closed (mice; [2]): 251; EPM Trial 1 Time Closed (mice; [1]): 280 and 287 and 293 and 268 and 258 and 222; EPM Trial 1 Time Open (mice; [1]): 20 and 13 and 7 and 32 and 42 and 78; EPM Trial 2 Time Open (mice; [1]): 4 and 60 and 0 and 43 and 23; EPM Trial 1 Time Closed (mice; [2]): 255; EPM Trial 1 Time Open (mice; [2]): 45; EPM Trial 2 Time Open (mice; [2]): 49; EPM Trial 1 Closed Entries (mice; [2]): 10; EPM Trial 1 Open Entries (mice; [2]): 10; EPM Trial 2 Closed Entries (mice; [2]): 6; EPM Trial 2 Open Entries (mice; [2]): 8; EPM Totals Closed Entries (mice; [1]): 9 and 10 and 2 and 3 and 8 and 11; EPM Totals Open Entries (mice; [1]): 7 and 8 and 1 and 5 and 10; EPM Totals Time Closed (mice; [1]): 576 and 527 and 593 and 568 and 515 and 499; EPM Totals Time Open (mice; [1]): 24 and 73 and 7 and 32 and 85 and 101; EPM Totals Time Closed (mice; [2]): 506; EPM Totals Time Open (mice; [2]): 94; EPM Totals Closed Entries (mice; [2]): 16; EPM Totals Open Entries (mice; [2]): 18; EPM Trial 1 Closed Entries (mice; [3]): 2 and 3 and 5 and 4; EPM Trial 1 Open Entries (mice; [3]): 1 and 5 and 4; EPM Trial 2 Closed Entries (mice; [3]): 1 and 6 and 13; EPM Trial 2 Open Entries (mice; [3]): 0 and 6 and 1 and 7; EPM Trial 2 Time Closed (mice; [3]): 300 and 219 and 298 and 244; EPM Trial 2 Time Closed (mice; [4]): 237 and 280 and 238; EPM Trial 1 Time Closed (mice; [3]): 297 and 266 and 284 and 290 and 268 and 259; EPM Trial 1 Time Open (mice; [3]): 3 and 34 and 16 and 10 and 32 and 41; EPM Trial 2 Time Open (mice; [3]): 0 and 81 and 2 and 56; EPM Trial 1 Time Closed (mice; [4]): 300 and 261 and 228 and 166; EPM Trial 1 Time Open (mice; [4]): 0 and 39 and 72 and 134; EPM Trial 2 Time Open (mice; [4]): 63 and 20 and 62; EPM Trial 1 Closed Entries (mice; [4]): 1 and 6 and 9; EPM Trial 1 Open Entries (mice; [4]): 0 and 6 and 9; EPM Trial 2 Closed Entries (mice; [4]): 7 and 8; EPM Trial 2 Open Entries (mice; [4]): 3 and 8; EPM Totals Closed Entries (mice; [3]): 3 and 9 and 6 and 17; EPM Totals Open Entries (mice; [3]): 1 and 11 and 4 and 5; EPM Totals Time Closed (mice; [3]): 597 and 485 and 584 and 590 and 566 and 503; EPM Totals Time Open (mice; [3]): 3 and 115 and 16 and 10 and 34 and 97; EPM Totals Time Closed (mice; [4]): 600 and 498 and 508 and 404; EPM Totals Time Open (mice; [4]): 0 and 102 and 92 and 196; EPM Totals Closed Entries (mice; [4]): 2 and 11 and 13; EPM Totals Open Entries (mice; [4]): 0 and 9 and 17; Closed Entries (mice; [5]): 15 and 5 and 8 and 6 and 9 and 14 and 11; Open Entries (mice; [5]): 10 and 7 and 8 and 6 and 12 and 17; Time Closed (mice; [5]): 435 and 498 and 481 and 538 and 465 and 421 and 544 and 262 and 497 and 529; Time Open (mice; [5]): 165 and 102 and 119 and 62 and 135 and 179 and 56 and 338 and 103 and 71; Closed Entries AVG (mice; Totals): 11.2; Open Entries AVG (mice; Totals): 9.1; Time Closed AVG (mice; Totals): 467; Time Open AVG (mice; Totals): 133; Closed Entries AVG (mice; Trial 1): 6.6; Open Entries AVG (mice; Trial 1): 5.8; Time Closed AVG (mice; Trial 1): 206.8; Time Open AVG (mice; Trial 1): 93.2; Closed Entries (mice; [6]): 9 and 2 and 6 and 3 and 5 and 8 and 10 and 7; Open Entries (mice; [6]): 7 and 3 and 6 and 5 and 4 and 9; Time Closed (mice; [6]): 160 and 258 and 206 and 186 and 167 and 254 and 112 and 227 and 240; Time Open (mice; [6]): 140 and 42 and 94 and 114 and 133 and 46 and 188 and 73 and 60; Closed Entries AVG (mice; Trial 2): 4.6; Open Entries AVG (mice; Trial 2): 3.3; Time Closed AVG (mice; Trial 2): 260.2; Time Open AVG (mice; Trial 2): 39.8; Closed Entries (mice; [7]): 6 and 3 and 2 and 4 and 7; Open Entries (mice; [7]): 3 and 4 and 2 and 5 and 1 and 8; Time Closed (mice; [7]): 275 and 240 and 280 and 279 and 254 and 290 and 150 and 270 and 289; Time Open (mice; [7]): 25 and 60 and 20 and 21 and 46 and 10 and 150 and 30 and 11; Time/Entry (mice; total Time Open per total Open Entries, individual animals, listed as 143): 16.5 and 14.5714 and 14.875 and 8.857 and 22.5 and 14.9167 and 9.333 and 19.8824 and 10.3 and 8.875
